“And” between values parts separate entries of the source, which are not always exact repeats. Equal entries are not always repeated. Where two headings read alike, the source gives them in different places.
What was measured:
[1] = test system: KB-31 human epidermoid cancer cell line; test: 72 hour growth-inhibition (cytotoxicity) assay, KB-31 cells; assay type: cell-based
[2] = test system: 1A9/A8, EpoA-resistant 1A9 cell line (β274 Thr→Ile); test: 72 hour growth-inhibition (cytotoxicity) assay, 1A9/A8 cells; assay type: cell-based, human; settings: for RRp (relative resistance), 1A9/A8: IC50 of 1A9/A8 divided by IC50 of the parental cell line
[3] = test system: KB-8511, Taxol-resistant (Pgp-overexpression) KB cell line; test: 72 hour growth-inhibition (cytotoxicity) assay, KB-8511 cells; settings: read-out: KB-8511 IC50; 72 hour growth inhibition, methylene blue staining; mean of 3-5 experiments ± SEM
Description: In addition, further cytotoxicity studies were carried out using a pair of drug-sensitive parental human epidermoid carcinoma cells (KB-31) and its Taxol™-resistant Pgp-overexpressing subline (KB-5811).

[4] = test system: A2780/AD10, drug-resistant clone of human ovarian carcinoma A2780 overexpressing P-glycoprotein; test: 72 hour growth-inhibition (cytotoxicity) assay, A2780/AD10 cells; assay type: cell-based; settings: for IC50: 72 hour growth inhibition, sulforhodamine-B staining, mean of 3-5 experiments ± SEM; for RRp (relative resistance), A2780/AD10: IC50 of A2780/AD10 divided by IC50 of the parental cell line
[5] = test system: 1A9 human ovarian cancer cell line; test: 72 hour growth-inhibition (cytotoxicity) assay, 1A9 cells; assay type: cell-based
[6] = test system: 1A9/PTX10, Taxol-resistant 1A9 cell line (β270 Phe→Val); test: 72 hour growth-inhibition (cytotoxicity) assay, 1A9/PTX10 cells; assay type: cell-based, human; settings: for RRp (relative resistance), 1A9/PTX10: IC50 of 1A9/PTX10 divided by IC50 of the parental cell line 1A9
[7] = Homo sapiens, KB 3-1, 72 h, read-out: KB-31 IC50
[8] = Homo sapiens, 1A9, 72 hour growth inhibition, sulforhodamine-B staining, mean of 3-5 experiments ± SEM, read-out: 1A9/A8 IC50
[9] = Homo sapiens, 1A9, 72 hour growth inhibition, sulforhodamine-B staining, mean of 3-5 independent experiments ± standard error of the mean, read-out: 1A9 IC50
[10] = Homo sapiens, 1A9/ptx-10, 72 hour growth inhibition, sulforhodamine-B staining, mean of 3-5 experiments ± SEM, read-out: 1A9/PTX10 IC50
[11] = 72 hour growth inhibition, sulforhodamine-B staining, mean of 3-5 experiments ± SEM, read-out: 1A9/A8 IC50
[12] = 72 hour growth inhibition, sulforhodamine-B staining, mean of 3-5 independent experiments ± standard error of the mean, read-out: 1A9 IC50
[13] = 72 hour growth inhibition, sulforhodamine-B staining, mean of 3-5 experiments ± SEM, read-out: 1A9/PTX10 IC50

Structure (SMILES)	IC50 [1, 7]	IC50 [2, 8]	RRp (relative resistance), 1A9/A8 [2]	IC50 [3]	IC50 ([4]; Homo sapiens, A2780)	RRp (relative resistance), A2780/AD10 [4]	IC50 [5, 9]	IC50 [6, 10]	RRp (relative resistance), 1A9/PTX10 [6]	IC50 [2, 11]	IC50 [4]	IC50 [5, 12]	IC50 [6, 13]	IC50 ([1]; 72 hour growth inhibition, methylene blue staining, mean of 3-5 experiments ± SEM, read-out: KB-31 IC50)	IC50 ([1]; read-out: EpoB (IC50 in the concurrent assay), KB-31, Table 2, EpoB determined concurrently with the epothilone)	IC50 ([2]; read-out: EpoB (IC50 in the concurrent assay), 1A9/A8, Table 2, EpoB determined concurrently with the epothilone)	IC50 ([5]; read-out: EpoB (IC50 in the concurrent assay), 1A9, Table 2, EpoB determined concurrently with the epothilone, unit from Table 1A note a)	IC50 ([6]; read-out: EpoB (IC50 in the concurrent assay), 1A9/PTX10, Table 2, EpoB determined concurrently with the epothilone)	IC50 ([1]; Homo sapiens, KB 3-1, 72 hour growth inhibition, methylene blue staining, mean of 3-5 experiments ± SEM, read-out: KB-31 IC50)
C/C(=C\c1nc(Cl)c2ncn(C)c2n1)[C@@H]1C[C@@H]2O[C@]2(C)CCC[C@H](C)[C@H](O)[C@@H](C)C(=O)C(C)(C)[C@@H](O)CC(=O)O1 [Compound 17]	1.62 ± 0.22 nM	4 ± 2.5 nM	1.1	20.2 ± 2.14 nM	46.3 ± 33.2 nM	12.5	3.7 ± 1.5 nM	13.6 ± 7.3 nM	3.7										
COc1nc(/C=C(\C)[C@@H]2C[C@@H]3O[C@]3(C)CCC[C@H](C)[C@H](O)[C@@H](C)C(=O)C(C)(C)[C@@H](O)CC(=O)O2)nc2c1ncn2C [Compound 18]	0.15 ± 0.09 nM	2.2 ± 1.6 nM	0.6	7.45 ± 0.81 nM	47.3 ± 36.5 nM	47.3	3.7 ± 1.8 nM	19.8 ± 10.6 nM	5.4										
CSc1nc(/C=C(\C)[C@@H]2C[C@@H]3O[C@]3(C)CCC[C@H](C)[C@H](O)[C@@H](C)C(=O)C(C)(C)[C@@H](O)CC(=O)O2)nc2c1ncn2C [Compound 19]	0.36 ± 0.17 nM	2.8 ± 2.2 nM	2.8	6.21 ± 0.86 nM	67 ± 9.8 nM	16.8	1 ± 0.8 nM	2 ± 1.5 nM	2.0										
C/C(=C\c1nnn(COCc2ccccc2)n1)[C@@H]1C[C@@H]2O[C@]2(C)CCC[C@H](C)[C@H](O)[C@@H](C)C(=O)C(C)(C)[C@@H](O)CC(=O)O1 [Compound 20]	0.57 ± 0.08 nM	16.8 ± 9.2 nM	4.2	4.44 ± 0.69 nM	> 750 nM		4 ± 0.3 nM	49 ± 7 nM	12.3										
C/C(=C\c1csc(C)n1)[C@@H]1C[C@@H]2O[C@@H]2CCC[C@H](C)[C@H](O)[C@@H](C)C(=O)C(C)(C)[C@@H](O)CC(=O)O1 [EpoA, reference compound]			17.1			25.7			2.1	41 ± 7.3 nM	25.4 ± 8.6 nM	2.4 ± 2.6 nM	5.1 ± 2.6 nM						
C/C(=C\c1csc(C)n1)[C@@H]1C[C@@H]2O[C@]2(C)CCC[C@H](C)[C@H](O)[C@@H](C)C(=O)C(C)(C)[C@@H](O)CC(=O)O1 [EpoB, reference compound]			10.1	0.39 ± 0.02 nM		15.7			7.9	10 ± 1.4 nM	56.5 ± 23.3 nM	0.99 ± 0.8 nM	7.8 ± 4.6 nM	0.42 ± 0.03 nM	0.19 nM	10 nM and 6.5 nM	0.3 nM and 0.6 nM	3.7 nM and 3.1 nM	
CC(=O)O[C@H]1C(=O)[C@@]2(C)[C@H]([C@H](OC(=O)c3ccccc3)[C@]3(O)C[C@H](OC(=O)[C@H](O)[C@@H](NC(=O)c4ccccc4)c4ccccc4)C(C)=C1C3(C)C)[C@]1(OC(C)=O)CO[C@@H]1C[C@@H]2O [Taxol ™, reference compound]				1130 ± 74 nM	> 150 nM														6.08 ± 1.19 nM
CC(=O)O[C@@]12CO[C@@H]1C[C@H](O)[C@@]1(C)C(=O)[C@H](O)C3=C(C)[C@@H](OC(=O)[C@H](O)[C@@H](NC(=O)OC(C)(C)C)c4ccccc4)C[C@@](O)([C@@H](OC(=O)c4ccccc4)[C@H]21)C3(C)C [Taxotere ™, reference compound]		0.8 ± 0.2 nM	0.5		29.4 ± 5.4 nM	12.3	1.5 ± 1.1 nM	32 ± 6.8 nM	21.3										

Source: patent publication US8003801B2 (The Scripps Research Institute, priority 2005, dated 2011)
